Series [1] can be described thus: Hydrogen peroxide stability in the presence of didecyldimethylammonium bicarbonate/carbonate. It counts as physicochemical. An excerpt: Hydrogen Peroxide Stability in the Presence of Didecyldimethylammonium Bicarbonate/-Carbonate
Series [2] concerns P. aeruginosa. In words: Efficacy against P. aeruginosa dried on microplate wells (growth/no growth, 4 replicates). The class given is cell-based. To be noted: 5% fetal bovine serum; for Positive cells out of a total of 4 after 5 min: contact time 5 min, diluted in water of 400 ppm hardness, positive = ineffective disinfection; for Positive cells out of a total of 4 after 10 min: contact time 10 min; for Positive cells out of a total of 4 after 10 min / Positive cells out of a total of 4 after 11 min / Positive cells out of a total of 4 after 13 min / Positive cells out of a total of 4 after 16 min / Positive cells out of a total of 4 after 20 min / Positive cells out of a total of 4 after 21 min / Positive cells out of a total of 4 after 25 min: water of 400 ppm hardness; for Positive cells out of a total of 4 after 11 min: contact time 11 min; for Positive cells out of a total of 4 after 13 min: contact time 13 min; for Positive cells out of a total of 4 after 16 min: contact time 16 min; for Positive cells out of a total of 4 after 20 min: contact time 20 min; for Positive cells out of a total of 4 after 21 min: contact time 21 min; for Positive cells out of a total of 4 after 25 min: contact time 25 min. On the procedure:
All solutions were diluted in water of 400 ppm hardness and all concentrations were expressed in ppm. Each of the solutions was tested in 4 replicates as described below. The numbers in Table 2 below indicate the number of “positive” cells or ineffective disinfection of 4 replicates. Various contact times noted on the tables were evaluated.
Flat bottom microplate wells were inoculated with 15 μL each of a suspension of 10% P. aeruginosa+5% fetal bovine serum in a saline solution, 4.5×10^7 cfu/mL using a Quadra Tower 400 Series High Throughput apparatus (Tomtec Inc., Hamden, Conn.). The plates were dried with cover open for 40 minutes at 36° C. Then, 120 μL of each test substance was transferred from the deep-well block to the test wells. The test organisms were exposed to the test substance for different contact times, after which the substances were removed with the Quadra and 150 μL of modified AOAC Letheen neutralizer+0.5% Na thiosulfate/growth broth was added to each well. The microplates were incubated at 36° C. for 24 hours and scored for growth/no growth.

The values below come from patent US20090004287A1, “Disinfectant formulations containing quaternary ammonium compounds and hydrogen peroxide” (priority 2007, published 2009).

As for `OO` [3.0% H2O2, hydrogen peroxide], in series [1] (1 month, 40° C.), the “% Hydrogen Peroxide Concentration at Time/Temperature: 1 Month/40° C.” value is on record as 1.82%. Further, the “% Hydrogen Peroxide Concentration at Time/Temperature: 1 Month/RT” value in series [1] (1 month, room temperature) is 2.85%. Besides, the “% Hydrogen Peroxide Concentration at Time/Temperature: 1 Week/40° C.” value in series [1] (1 week, 40° C.) is given as 2.74%. Moreover, the “% Hydrogen Peroxide Concentration at Time/Temperature: 1 Week/RT” value in series [1] (1 week, room temperature) is 2.99%. For the same molecule, the “% Hydrogen Peroxide Concentration at Time/Temperature: Initial” value in series [1] (Initial, by weight, analytical accuracy ±3% relative) stood at 3.11%.
As to `OO` [H2O2 2,000 ppm, hydrogen peroxide], in series [2], the “Positive cells out of a total of 4 after 5 min” value (“Positive cells out … after 5 min” below) came out at 0, the “Positive cells out of a total of 4 after 10 min” value was found to be 0, the “Positive cells out of a total of 4 after 11 min” value is on record as 0 and the “Positive cells out of a total of 4 after 13 min” value turned out to be 0. Also, in series [2], the “Positive cells out of a total of 4 after 16 min” value is given as 0, the “Positive cells out of a total of 4 after 20 min” value amounted to 0, the “Positive cells out of a total of 4 after 21 min” value is reported as 0 and the “Positive cells out of a total of 4 after 25 min” value is 0.
`OO` [H2O2 600 ppm, hydrogen peroxide]: in series [2], the “Positive cells out … after 5 min” value was determined as 4, the “Positive cells out of a total of 4 after 10 min” value is listed as 4, the “Positive cells out of a total of 4 after 11 min” value worked out at 2 and the “Positive cells out of a total of 4 after 13 min” value turned out to be 0. Further, in series [2], the “Positive cells out of a total of 4 after 16 min” value was 0, the “Positive cells out of a total of 4 after 20 min” value stood at 0, the “Positive cells out of a total of 4 after 21 min” value was determined as 0 and the “Positive cells out of a total of 4 after 25 min” value is 0.
As to “didecyldimethylammonium carbonate/bicarbonate [Quat 500 ppm]”, in series [2], the “Positive cells out … after 5 min” value is 4, the “Positive cells out of a total of 4 after 10 min” value is reported as 4, the “Positive cells out of a total of 4 after 11 min” value came to 4 and the “Positive cells out of a total of 4 after 13 min” value worked out at 4. Besides, in series [2], the “Positive cells out of a total of 4 after 16 min” value is 1, the “Positive cells out of a total of 4 after 20 min” value stood at 0, the “Positive cells out of a total of 4 after 21 min” value is reported as 1 and the “Positive cells out of a total of 4 after 25 min” value turned out to be 0.
